In patent US20250122193A1, “NOVEL PYRIDOCARBAZOLIUM COMPOUNDS AND MEDICAL USES THEREOF” (MyCural Therapeutics, priority 2021, published 2025):

Tests used:
[1] = molecular target: T1, MYCN:MAX interaction (Homo sapiens, UniProt P04198); test: split Gaussia luciferase (GLuc) assay, MYCN:MAX; type: cell-based; conditions: HeLa cells
T1 construct: replacing the existing Zip-gene (GCN4) with full length MYC, MYCN or MAX cDNA; expressed in transfected cells; host or cells: HeLa
T1 sequence (P04198 1-464): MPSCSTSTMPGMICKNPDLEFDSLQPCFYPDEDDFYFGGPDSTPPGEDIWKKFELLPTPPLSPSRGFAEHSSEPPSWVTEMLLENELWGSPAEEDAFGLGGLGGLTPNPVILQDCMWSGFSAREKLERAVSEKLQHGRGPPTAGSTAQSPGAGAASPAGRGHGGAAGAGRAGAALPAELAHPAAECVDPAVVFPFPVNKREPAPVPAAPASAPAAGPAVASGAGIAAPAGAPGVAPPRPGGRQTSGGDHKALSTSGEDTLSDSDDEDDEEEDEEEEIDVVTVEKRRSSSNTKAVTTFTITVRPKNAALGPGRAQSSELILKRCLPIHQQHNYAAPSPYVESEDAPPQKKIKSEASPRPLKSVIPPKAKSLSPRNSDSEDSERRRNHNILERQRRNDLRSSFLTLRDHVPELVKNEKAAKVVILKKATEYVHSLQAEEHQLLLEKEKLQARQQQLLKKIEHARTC
Protocol: A) Molecular structure of MYCMI-7. B-E) split Gaussia luciferase (GLuc) assay. MYC or MYCN and MAX Gluc constructs were co-transfected into HeLa cells together with a firefly luciferase vector. 24 hours post transfection cells were treated with compounds, and after another 17-24 hours cells were harvested and both GLuc and firefly luciferase activities were measured. The mean of three different experiments is shown. Treatment with: B) 5 μM of MYCMI-7, 64 μM 10058-F4 or 5 μM JQ1, respectively, C) 6.5 μM MYCMI-7 on cells expressing MYC:MAX GLuc vs. GCN4:GCN4 GLuc, D) 5 μM MYCMI-7 and 5 μM ellipticine. E) 5 μM MYCMI-7 for various time points. F) in situ proximity ligation assay (isPLA). […] MYC:GAL4 was used as negative control in the isPLA assay. G) Quantification of isPLA dots. (H) Co-immunoprecipitation (co-IP) of endogenous MYC and MAX proteins from MCF7 cells after treatment with 5 μM MYCMI-7 at various times. IP=immunoprecipitation; W=western blot. I) Chromatin immunoprecipitation (ChIP) of MYC at the ODC1 target gene promoter after treatment of cells with 5 μM MYCMI-7 for 6 hours. J) MYC target gene ODC1 expression after treatment with 5 μM MYCMI-7, quantified by qPCR. […] L) Recombinant MYC bHLHZip protein domain immobilized onto a CM5 chip was subjected to various concentrations of MYCMI-7 and the complex of MYCbHLHZip-MYCMI-7 was measured as response units by SPR. […]
0.2-0.4 μg of each GLuc-construct together with 0.05 μg pCMV-LUC (firefly luciferase) were used per transfection in 12 well plates. […] After 60 min incubation at room temperature 20 μM D-luciferin was added (substrate of Firefly luciferase) and luminescence was measured in a Lumat LB9501 (Berthold) or OmegaFluostar (BMG Labtech) luminometer. Directly after, Gaussia luciferase substrate Coelenterazine (Promega) was added to a final concentration of 20 μM in a mixture with “Stop n' Glow” (Promega) and the luciferase activity was measured. The ratio between Gaussia and Firefly luciferase values were calculated and normalized to DMSO-treated control cells.

[2] = molecular target: MYC:MAX interaction (Homo sapiens, UniProt P01106); test: split Gaussia luciferase (GLuc) assay, MYC:MAX; type: cell-based; design: replacing the existing Zip-gene (GCN4) with full length MYC, MYCN or MAX cDNA; expressed in transfected cells; host or cells: HeLa; conditions: HeLa cells
MYC:MAX interaction, sequence (P01106 16-454): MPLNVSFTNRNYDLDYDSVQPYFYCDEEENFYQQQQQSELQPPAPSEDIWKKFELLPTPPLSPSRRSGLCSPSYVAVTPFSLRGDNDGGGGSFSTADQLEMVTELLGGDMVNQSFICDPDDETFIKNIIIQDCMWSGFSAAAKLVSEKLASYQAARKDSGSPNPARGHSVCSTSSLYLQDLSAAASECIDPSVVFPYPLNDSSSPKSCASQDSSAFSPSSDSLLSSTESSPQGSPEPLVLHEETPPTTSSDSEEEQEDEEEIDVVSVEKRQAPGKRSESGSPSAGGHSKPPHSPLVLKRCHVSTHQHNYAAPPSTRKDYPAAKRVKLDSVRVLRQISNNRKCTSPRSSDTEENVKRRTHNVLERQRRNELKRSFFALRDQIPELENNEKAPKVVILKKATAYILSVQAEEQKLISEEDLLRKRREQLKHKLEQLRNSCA
Protocol: A) Molecular structure of MYCMI-7. B-E) split Gaussia luciferase (GLuc) assay. MYC or MYCN and MAX Gluc constructs were co-transfected into HeLa cells together with a firefly luciferase vector. 24 hours post transfection cells were treated with compounds, and after another 17-24 hours cells were harvested and both GLuc and firefly luciferase activities were measured. The mean of three different experiments is shown. Treatment with: B) 5 μM of MYCMI-7, 64 μM 10058-F4 or 5 μM JQ1, respectively, C) 6.5 μM MYCMI-7 on cells expressing MYC:MAX GLuc vs. GCN4:GCN4 GLuc, D) 5 μM MYCMI-7 and 5 μM ellipticine. E) 5 μM MYCMI-7 for various time points. F) in situ proximity ligation assay (isPLA). […] MYC:GAL4 was used as negative control in the isPLA assay. G) Quantification of isPLA dots. (H) Co-immunoprecipitation (co-IP) of endogenous MYC and MAX proteins from MCF7 cells after treatment with 5 μM MYCMI-7 at various times. IP=immunoprecipitation; W=western blot. I) Chromatin immunoprecipitation (ChIP) of MYC at the ODC1 target gene promoter after treatment of cells with 5 μM MYCMI-7 for 6 hours. J) MYC target gene ODC1 expression after treatment with 5 μM MYCMI-7, quantified by qPCR. K) ChIP of MYC at the ODC promoter in MCF7 cells after 5 μM MYCMI-7 treatment for indicated time points. L) Recombinant MYC bHLHZip protein domain immobilized onto a CM5 chip was subjected to various concentrations of MYCMI-7 and the complex of MYCbHLHZip-MYCMI-7 was measured as response units by SPR. The sensogram was produced by subtracting the blank response.
0.2-0.4 μg of each GLuc-construct together with 0.05 μg pCMV-LUC (firefly luciferase) were used per transfection in 12 well plates. 24 hours later cells were treated with compound or DMSO. After another 17 hours, the cells were harvested and lyzed in passive lysis buffer (Promega) supplemented with complete protease inhibitor (Roche). After 60 min incubation at room temperature 20 μM D-luciferin was added (substrate of Firefly luciferase) and luminescence was measured in a Lumat LB9501 (Berthold) or OmegaFluostar (BMG Labtech) luminometer. Directly after, Gaussia luciferase substrate Coelenterazine (Promega) was added to a final concentration of 20 μM in a mixture with “Stop n' Glow” (Promega) and the luciferase activity was measured. The ratio between Gaussia and Firefly luciferase values were calculated and normalized to DMSO-treated control cells.

[3] = molecular target: Recombinant human Top2a (Homo sapiens, UniProt P11388); test: Top2 decatenation assay; type: biochemical; conditions: for effect on TOP2A activity: 1-100 μM
Recombinant human Top2a, sequence (P11388 whole entry): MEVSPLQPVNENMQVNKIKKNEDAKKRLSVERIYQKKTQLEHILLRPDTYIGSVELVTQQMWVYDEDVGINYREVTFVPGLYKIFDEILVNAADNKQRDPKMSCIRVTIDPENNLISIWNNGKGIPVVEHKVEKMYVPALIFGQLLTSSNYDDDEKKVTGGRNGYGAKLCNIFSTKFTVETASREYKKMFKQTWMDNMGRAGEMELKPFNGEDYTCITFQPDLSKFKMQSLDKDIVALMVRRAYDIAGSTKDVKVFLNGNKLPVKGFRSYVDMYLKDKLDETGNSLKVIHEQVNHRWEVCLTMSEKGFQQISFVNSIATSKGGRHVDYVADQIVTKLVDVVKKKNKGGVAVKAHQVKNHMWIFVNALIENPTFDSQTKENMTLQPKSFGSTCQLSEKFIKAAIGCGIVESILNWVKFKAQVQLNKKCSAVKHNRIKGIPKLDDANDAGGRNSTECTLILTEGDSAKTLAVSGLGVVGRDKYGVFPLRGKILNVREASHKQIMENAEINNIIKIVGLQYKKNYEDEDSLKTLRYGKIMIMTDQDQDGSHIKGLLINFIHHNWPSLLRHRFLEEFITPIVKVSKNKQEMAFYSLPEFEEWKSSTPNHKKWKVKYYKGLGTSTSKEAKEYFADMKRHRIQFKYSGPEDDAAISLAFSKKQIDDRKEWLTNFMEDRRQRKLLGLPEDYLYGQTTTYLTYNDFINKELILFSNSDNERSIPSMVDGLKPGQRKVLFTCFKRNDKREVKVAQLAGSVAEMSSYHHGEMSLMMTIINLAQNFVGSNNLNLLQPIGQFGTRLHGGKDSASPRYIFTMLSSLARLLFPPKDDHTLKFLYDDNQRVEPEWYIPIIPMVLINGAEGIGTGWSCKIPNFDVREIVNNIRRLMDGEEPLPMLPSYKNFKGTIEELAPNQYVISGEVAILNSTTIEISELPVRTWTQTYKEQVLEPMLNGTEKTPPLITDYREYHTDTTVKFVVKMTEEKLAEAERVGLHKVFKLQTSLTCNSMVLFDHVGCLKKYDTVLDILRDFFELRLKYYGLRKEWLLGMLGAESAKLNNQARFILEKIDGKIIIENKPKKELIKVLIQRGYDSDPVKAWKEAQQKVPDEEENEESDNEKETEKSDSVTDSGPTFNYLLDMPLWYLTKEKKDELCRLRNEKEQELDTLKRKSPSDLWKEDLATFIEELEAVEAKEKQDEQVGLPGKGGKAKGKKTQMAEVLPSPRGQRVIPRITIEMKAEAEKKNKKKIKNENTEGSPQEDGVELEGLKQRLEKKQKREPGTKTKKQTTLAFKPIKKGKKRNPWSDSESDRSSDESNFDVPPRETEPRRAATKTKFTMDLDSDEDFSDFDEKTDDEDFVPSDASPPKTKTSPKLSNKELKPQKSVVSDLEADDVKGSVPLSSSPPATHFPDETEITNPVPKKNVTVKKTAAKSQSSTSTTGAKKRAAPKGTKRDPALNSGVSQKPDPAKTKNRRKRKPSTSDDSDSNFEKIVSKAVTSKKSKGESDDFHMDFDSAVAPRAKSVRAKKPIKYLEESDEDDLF
Protocol: Top2 decatenation assay: Recombinant human Top2a (15 nM) was incubated with 80 ng catenated kinetoplast DNA (Topogen, TG2013) in Top2 reaction buffer (50 mM Tris pH8, 150 mM NaCl, 10 mM MgCl2, 0.5 mM DTT, 30 μg/ml BSA) with 1-100 μM of either doxorubicin, MYCMI-7, ellipticine or camptothecin for 10 minutes at 37° C. Drug dilutions were made in a DMSO/H2O solution so that a final concentration of 1% DMSO was consistent across all samples. The reaction was stopped with the addition of SDS to a final concentration of 1% and the Top2a was digested by Proteinase K at 55° C. for 10 minutes. DNA was purified by phenol:chloroform extraction before running on a 1% agarose gel either containing or post-stained with 0.5 μg/ml ethidium bromide. The decatenated products were quantified, normalised to the Top2α+DMSO control and plotted using GraphPad Prism.
First, we utilized an in vitro TOP2A decatenation assay. TOP2 enzymes decatenate kinetoplast DNA (kDNA) converting a network of interlocking DNA rings into individual rings that can be separated by agarose gel electrophoresis.

[4] = tested on: p53 expression; test: p53 expression by western blot; type: cell-based; conditions: 5 μM, HCT116 cells
Protocol: (§1) A) Measurement of MYC mRNA expression by RTqPCR after treatment with MYCMI-7 and different topoisomerase inhibitors at indicated concentrations. […] D) Western blot analysis of p53 and p21 expression after exposure to 5 μM MYCMI-7, ellipticine or camptothecin (CPT) in HCT116 cells. E) Western blot analysis of phospho-ATM, total ATM and p53 expression after exposure to indicated concentrations of MYCMI-7 and ellipticine in A375 cells after 3 hrs treatment.
(§2) For western blot equal amounts of proteins ([…]) were separated on a 4-12% SDS-PAGE gel. Proteins were transferred to Immobilion-P membrane (Millipore) and detected by immunostaining and chemoluminescence (Immobilion western HRP substrate; Millipore). For immunoprecipitations 500-1000 μg of protein was used. […] Briefly, cells were crosslinked with 1% formaldehyde on ice for 6 minutes. Nuclear chromatin was sonicated on ice to fragments from 0.3 kb to 0.5 kb. Nuclear chromatin equivalent to 2.5×10^7 cells was immunoprecipitated with 2 μg antibody.

[5] = tested on: MYC mRNA; test: MYC mRNA expression by RT-qPCR; type: cell-based; conditions: 1 μM
Protocol: as §1

[6] = tested on: Rat1 fibroblasts TGR1 (wt MYC) and HOMyc3 (reconstituted MYC); test: WST-1 growth/viability assay, MYC-expressing Rat1 fibroblasts; type: cell-based, rat; conditions: TGR1, HO15.19 and HOMyc3
Protocol: A) Immortalized Rat1 fibroblasts with different MYC status; TGR1 (wt MYC), HO15.19 (MYC−/−) and HOMyc3 (HO15.19 with reconstituted MYC) were treated with indicated concentrations of MYCMI-7 for 48 hours. Cell proliferation/viability/metabolic activity was measured using the WST-1 assay. […] “Responsive” and “less responsive”; cell lines with positive and negative log 10 GI50 values, respectively. […] For the WST-1 assays the average of three different experiments performed in triplicates is shown.
Cell growth and viability assays: Cell growth and viability was estimated in triplicates with WST-1 (Roche) or Resazurin sodium salt (Sigma-Aldrich) assays in medium at 37° C. and 5% CO2 for 2 hours after which absorbance or fluorescence, respectively, was measured with an Omega Fluostar (BMG Labtech) in a 96 well plate format.

[7] = tested on: phosphorylation of ATM; test: phospho-ATM and p53 by western blot, A375; type: cell-based; conditions: 5 μM, A375 cells, 3 hrs
Protocol: as §1, §2

Compound: CCc1ccc(/C=C2/SC(=S)NC2=O)cc1 [Example 10058-F4, 10058-F4]
- inhibition of MYCN:MAX GLuc interaction ([1]; 64 μM): only weak effects
- inhibition of MYC:MAX GLuc interaction ([2]; 64 μM): only weak effects

Compound: Cc1sc2c(c1C)C(c1ccc(Cl)cc1)=N[C@@H](CC(=O)OC(C)(C)C)c1nnc(C)n1-2 [JQ1]
- inhibition of MYCN:MAX GLuc interaction ([1]; 5 μM): only weak effects
- inhibition of MYC:MAX GLuc interaction ([2]; 5 μM): only weak effects

Compound: CC[C@@]1(O)C(=O)OCc2c1cc1n(c2=O)Cc2cc3ccccc3nc2-1 [camptothecin, reference compound]
- effect on TOP2A activity [3]: no effect
- p53 expression [4]: induced p53 expression

Compound: COc1cccc2c1C(=O)c1c(O)c3c(c(O)c1C2=O)C[C@@](O)(C(=O)CO)C[C@@H]3O[C@H]1C[C@H](N)[C@H](O)[C@H](C)O1 [doxorubicin]
- MYC expression (mRNA) [5]: strongly reduced
- concentration at which TOP2A inhibition starts ([3]; in vitro decatenation of kDNA): 3 µM
- concentration of complete TOP2A inhibition ([3]; in vitro decatenation of kDNA): 10 µM

Compound: Cc1c2ccncc2c(C)c2c1[nH]c1ccccc12 [ellipticine, reference compound]
- growth of Rat1 cell clones irrespective of MYC status [6]: reduced growth of all three cell clones
- effect on TOP2A activity [3]: no effect
- p53 expression [4]: induced p53 expression
- phosphorylation of ATM and p53 expression (DDR signaling) [7]: strongly induced
- inhibition of MYC:MAX GLuc interaction ([2]; 5 μM): inactive
